Patent publication US9655887B2, “Pharmaceutical composition and the use thereof, and application regime of said pharmaceutical composition for on-demand contraception” (BAYER PHARMA AKTIENGESELLSCHAFT, priority 2013, dated 2017)
Marks after values point to notes of the source that are not given here. One block for each compound: values may come before it.

Columns and labels:
[1] = system: fertilizability of ovulated cumulus-oocyte complexes; experiment: In-vivo action on post-ovulatory in-vitro fertilization; set-up: species or system mice (strain: B6D2F1); conditions: 1-10 mg/kg s.c.
Text: 4.3 In-Vivo Action on Post-Ovulatory In-Vitro Fertilization:
Substances can exert an influence on fertility by decreasing the fertilizability of oocytes or cumulus-oocyte complexes. In order to study such effects, substances can be administered in vivo and subjected to in vitro fertilization after ovulation of cumulus-oocyte complexes has taken place. The in-vitro fertilization rate, where no test substance is any longer present, allows conclusions as to the in-vivo effects of the test substances.
Immature female mice (strain: B6D2F1, Charles River, Suelzfeld, age: 19-25 days) were kept in Macrolon cages in rooms with controlled illumination (12 hrs darkness: 12 hrs light), fed with a standard diet and provided with drinking water ad libitum.
The mice were primed with PMSG (pregnant mare serum gonadotropin) (10 IU/animal i.p.). After 48 hours, a stimulus triggering ovulation was created in the animals by one administration of 10 IU/animal i.p. (hCG, human chorionic gonadotropin). The test substances were dissolved in benzyl benzoate/castor oil (1+4 v/v) and administered in a volume of 0.1 ml s.c. 1 hour before hCG (n=5 animals per group). Fourteen hours after hCG administration, the animals were killed. […] Twenty-four hours after the incubation with the sperms, the number of fertilized oocytes is established and the percentage fertilization rate determined

[2] = system: fertility of the female rat; experiment: Single administration of EP2 receptor antagonists and COX inhibitors alone or in combination, fertility of the rat (implantation sites); type: in vivo, female Han Wistar rats
Protocol: 6. Effect of a Single Administration of EP2 Receptor Antagonists and COX Inhibitors Alone or in Combination on the Fertility of the Rat
In the experiments below, female Han Wistar rats having a weight of 200-270 g were used. The animals were kept in Makrolon cages in rooms with controlled lighting (12 hours of darkness; 12 hours of light), fed with a standard diet and provided with water ad libitum.
EP2 receptor antagonists were dissolved in benzyl benzoate/castor oil (1+4 v/v), and the dose was administered in a volume of 1 ml/kg of body weight s.c. Optionally, EP2 receptor antagonists were also administered orally in the same vehicle as the COX inhibitors (see below). […]
The COX inhibitors were suspended in a carrier liquid (85 mg of Myrj®53 polyoxyl(50)stearate; CAS No. 9004-99-3) in 100 ml of 0.9% w/v NaCl solution), and the dose corresponding to the treatment group was administered in a volume of 2 ml/kg of body weight.
Prior to the start of the experiment, two cycles were observed using vaginal swabs. Only animals having a regular 4-day cycle were used in the experiment. The animals were randomized to the treatment groups.
The animals were treated once in the proestrus, the day in the cycle when the LH peak occurs in the evening, with the test substances either alone or in combination. On the evening of the proestrus, the female animals mated with a male rat. Successive mating was confirmed by detection of vaginal sperms in the vaginal swab the next morning. The effect on fertility was determined 9-15 days after mating by the number of implantation sites of the animals. […]

[3] = system: ovulation; conditions: cited from earlier work
[4] = system: fertilizability of oocytes or cumulus-oocyte complexes; experiment: In-vivo effect on postovulatory in-vitro fertilization in the mouse (2-cell embryos); set-up: species or system mice (strain: B6D2F1); conditions: vehicle 36.3 ± 9.5
Text: 7. In-Vivo Effect on Postovulatory In-Vitro Fertilization in the Mouse
Substances can influence fertility by lowering fertilizability of oocytes or cumulus-oocyte complexes. To examine such effects, substances can be administered in vivo and, after ovulation of cumulus-oocyte complexes, the latter are subjected to in-vitro fertilization. The in-vitro fertilization rate in the absence of test substance allows conclusions to be drawn on the in-vivo effects of the test substances.
Immature female mice (strain: B6D2F1, Charles River, Suelzfeld, age: 19-25 days) were kept in Makrolon cages in rooms with controlled lighting (12 hours of darkness: 12 hours of light), fed with a standard diet and provided with water ad libitum.
The mice were primed with PMSG (Pregnant Mare Serum Gonadotropin) (10 IU/animal i.p.). After 48 hours, by administration of 10 IU/animal i.p., an ovulation-triggering stimulus (hCG, human Chorion Gonadotropin) was generated in the animals. EP2 receptor antagonists were dissolved in benzyl benzoate/castor oil (1+4 v/v) and administered in a volume of 0.1 ml s.c. 1 hour prior to hCG (n=5 animals per group). The COX inhibitor was suspended in a carrier liquid (85 mg of Myrj®53 polyoxyl(50)stearate; CAS No. 9004-99-3) in 100 ml of 0.9% w/v NaCl solution), and the appropriate dose was administered in a volume of 2 ml/kg of body weight orally 1 hour prior to hCG. Fourteen hours after administration of hCG, the animals were sacrificed. Ovulated oocytes and cumulus-oocyte complexes were obtained from the ovarii bursa and/or the oviduct and subjected to in-vitro fertilization, with a sperm number of 40 000 sperms/0.5 ml for 1 hour being used for fertilization. Twenty-four hours after incubation with the sperms, the number of fertilized oocytes and the number of 2-cell embryos per animal were determined.

[5] = molecular target: EP2 subtype of the human PGE2 receptor (hEP2 receptor) (Homo sapiens, UniProt P43116); experiment: cAMP antagonism test, human prostaglandin E2 (subtype EP2) receptor signal; type: cell-based
Sequence of EP2 subtype of the human PGE2 receptor (hEP2 receptor) (P43116 whole entry): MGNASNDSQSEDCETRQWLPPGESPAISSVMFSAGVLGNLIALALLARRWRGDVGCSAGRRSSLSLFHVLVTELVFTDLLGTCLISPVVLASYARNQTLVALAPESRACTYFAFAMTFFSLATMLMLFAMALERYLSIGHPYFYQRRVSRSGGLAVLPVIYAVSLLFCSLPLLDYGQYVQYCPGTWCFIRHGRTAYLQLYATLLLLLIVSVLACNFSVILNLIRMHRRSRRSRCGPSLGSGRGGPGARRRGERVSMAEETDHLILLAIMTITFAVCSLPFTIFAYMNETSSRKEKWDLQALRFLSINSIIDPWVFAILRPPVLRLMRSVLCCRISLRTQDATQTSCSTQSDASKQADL
Method in brief: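 Cells (625000 cells/ml, mixed with cAMP-d2) were preincubated 20 min at RT with compound ([…]). They were then stimulated 60 min at RT with a 3× PGE2 solution (1.5 nM) in PBS-IBMX and lysed for 20 min. cAMP was read by HTRF as the 665/620 nm ratio ×10000, with antagonism seen as a rise in FRET signal.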

[6] = single administration in proestrus, Indomethacin 1 mg/animal, 16:00
[7] = Table 6.3, proestrus, Piroxicam 2 mg/animal, 12:30
[8] = single administration in proestrus, Piroxicam 2 mg/animal, 7:00
[9] = single administration in proestrus, Piroxicam 2 mg/animal, 13:00
[10] = single administration in proestrus, Piroxicam 2 mg/animal, 18:00, data of n = 5 animals

Compound: COCCNC(=O)c1ccc2nn(CC3CCN(C(=O)c4ccc(Oc5ccc(C(F)(F)F)cc5)cc4)CC3)cc2c1C [Example 17, N-(2-methoxyethyl)-4-methyl-2-[(1-{4-[4-(trifluoromethyl)phenoxy]benzoyl}piperidin-4-yl)methyl]-2H-indazole-5-carboxamide]
influence on the fertilizability of ovulated cumulus-oocyte complexes [1]: dose-dependent influence on the fertilizability of ovulated cumulus-oocyte complexes

Compound: COc1ccc2c(c1)c(CC(=O)O)c(C)n2C(=O)c1ccc(Cl)cc1 [Indomethacin, indomethacin, reference compound]
Absolute implantations number of 6 animals [2, 6]: 67 | Implantations per animal (mean ± SD) [2, 6]: 11.2 ± 2.9 | effect on ovulation ([3]; 2×100 mg per day over 5 days (Killick and Elstein 1987)): inhibition of ovulation | delay of ovulation ([3]; 3×50 mg per day for at least 3 days, 6 women, in 5 cases (Athanasious et al.)): 2 to 12 days

Compound: CN1C(C(=O)Nc2ccccn2)=C(O)c2ccccc2S1(=O)=O [Piroxicam, piroxicam, reference compound]
Absolute implantations number of 6 animals [2, 7]: 71 | Implantations per animal (mean ± SD) [2, 7]: 11.8 ± 3.7 | Absolute implantations number of 6 animals [2, 8]: 81 | Implantations per animal (mean ± SD) [2, 8]: 13.5 ± 1.0 | Absolute implantations number of 6 animals [2, 9]: 68 | Implantations per animal (mean ± SD) [2, 9]: 11.3 ± 1.6 | Absolute implantations number of 6 animals [2, 10]: 53* | Implantations per animal (mean ± SD) [2, 10]: 10.6 ± 1.5 | 2-Cell embryos per animal (mean ± SD) ([4]; Piroxicam 0.1 mg/animal orally 1 hour prior to hCG): 10.8 ± 3.8

IC50 [5]: > 50 nM
Compound: Cc1c(C(=O)NCC(F)(F)F)ccc2nn(CC3CCN(C(=O)c4ccc(Oc5ccc(C(F)(F)F)cc5)cc4)CC3)cc12 [Example E126, 4-methyl-N-(2,2,2-trifluoroethyl)-2-[(1-{4-[4-(trifluoromethyl)phenoxy]benzoyl}piperidin-4-yl)methyl]-2H-indazole-5-carboxamide]
2-Cell embryos per animal (mean ± SD) ([4]; E126 0.1 mg/animal s.c. 1 hour prior to hCG): 30.8 ± 7.3 | 2-Cell embryos per animal (mean ± SD) ([4]; E126 0.5 mg/animal s.c. 1 hour prior to hCG): 12.6 ± 3.6
